The record followed here is patent US20260072046A1 (priority 2015, published 2026).

Data set [1] can be described thus: LC-MS/MS quantification of drugs in oral fluid of live and post-mortem dogs. The following applies: for detected and quantified in the sublingual region (oral fluid): Example 4, post-mortem dog, sublingual area.
A short description of data set [2]: LC-MS/MS quantification of drugs in muscle tissue fluid from remains of a post-mortem individual.
Data set [3] in a line: LC/MS/MS of muscle tissue homogenate (conventional method). Particulars: Example 5, remains of decedent; homogenate muscle tissue:plasma 1:4.
The conditions of data set [4]: human; for concentration detected in the sublingual region (oral fluid) / concentration detected in the submandibular gland (oral fluid): female.
[5] abbreviates: post-mortem dog SF10049, FIG. 28.
Where [6] appears, read: PM50019 001a, liquid leaked from container.
[7] abbreviates: PM50019 001b, fluid expelled by pressing muscle tissue.

Each structure is given as a SMILES string. Where two headings read alike, the source gives them in different places. Some results are limits rather than exact numbers.

With `CC(=O)Nc1ccc(O)cc1` [acetaminophen], the “detected and quantified in the sublingual region (oral fluid)” value (“detected and quantified” below) in data set [1] came out at 12.20 ng/mL. Further, in data set [1] (setting [5]), the “concentration in oral fluid” value is reported as 12.20 ng/mL.

Take `CC(N)Cc1ccccc1` (stereo not shown) [amphetamine]: the “concentration from the muscle tissue sample (muscle tissue fluid)” value in data set [2] (setting [6]) was found to be 10.4 ng/mL; in data set [2] (setting [7]), 5.7 ng/mL. For the same compound, in data set [3], the “concentration from the muscle tissue homogenate” value is reported as below 100 ng/g.

For the compound `CCCC(C)(COC(N)=O)COC(=O)NC(C)C` (stereo not shown) [carisoprodol], in data set [4], the “concentration detected in the sublingual region (oral fluid)” value came to 49.20 ng/mL and the “concentration detected in the submandibular gland (oral fluid)” value worked out at 54.38 ng/mL.

`O=C1CN=C(c2ccccc2Cl)c2cc([N+](=O)[O-])ccc2N1` [clonazepam]: the “concentration in oral fluid” value in data set [4] came out at 0.34 ng/mL.

As to `COc1ccc2c3c1O[C@H]1[C@@H](O)C=C[C@H]4[C@@H](C2)N(C)CC[C@@]341` [codeine], in data set [4], the “concentration detected in the sublingual region (oral fluid)” value is 5.64 ng/mL, the “concentration detected in the submandibular gland (oral fluid)” value amounted to 0.0 ng/mL and the “concentration in oral fluid” value was found to be 4.63 ng/mL.

Turning to `CN(C)CCC=C1c2ccccc2C=Cc2ccccc21` [cyclobenzaprine], the “concentration in oral fluid” value in data set [4] is listed as 4.74 ng/mL.

As to `NCC1(CC(=O)O)CCCCC1` [gabapentin], the “detected and quantified” value in data set [1] is 205.00 ng/mL. The “concentration in oral fluid” value in data set [1] (setting [5]) came to 205.00 ng/mL.

As to `CNC1(c2ccccc2Cl)CCCCC1=O` (stereo not shown) [ketamine], the “detected and quantified” value in data set [1] was 408.30 ng/mL. Also, the “concentration in oral fluid” value was found to be 598.30 ng/mL in data set [1] (live dog SF10085, FIG. 21); 592.10 ng/mL in data set [1] (live dog SF10086, FIG. 22); 1914.90 ng/mL in data set [1] (live dog SF10087, FIG. 23); 426.20 ng/mL in data set [1] (live dog SF10088, FIG. 24); 844.20 ng/mL in data set [1] (live dog SF10092, FIG. 25); 408.30 ng/mL in data set [1] (setting [5]). Moreover, the “concentration in oral fluid” value in data set [1] (post-mortem dog SF10093, FIG. 26) is given as 229.50 ng/mL.

`CN[C@@H](C)Cc1ccccc1` [methamphetamine]: the “concentration from the muscle tissue sample (muscle tissue fluid)” value in data set [2] (setting [6]) was found to be 113.1 ng/mL; in data set [2] (setting [7]), 46.1 ng/mL. The “concentration from the muscle tissue homogenate” value in data set [3] is on record as 448+63 ng/g. The “concentration in oral fluid” value in data set [1] (live dog SF10048, FIG. 27) turned out to be 16.20 ng/mL.

For `CN1CC[C@]23c4c5ccc(O)c4O[C@H]2[C@@H](O)C=C[C@H]3[C@H]1C5` [morphine], in data set [4], the “concentration detected in the sublingual region (oral fluid)” value stood at 197.42 ng/mL and the “concentration detected in the submandibular gland (oral fluid)” value came out at 12.34 ng/mL.

Take `COc1ccc2c3c1O[C@H]1C(=O)CC[C@@]4(O)[C@@H](C2)N(C)CC[C@]314` [oxycodone]: in data set [4], the “concentration in oral fluid” value turned out to be 5.53 ng/mL.

Consider `COc1cccc(C2(O)CCCCC2CN(C)C)c1` (stereo not shown) [tramadol], for which the “detected and quantified” value in data set [1] is 49.70 ng/mL. For the same compound, the “concentration in oral fluid” value in data set [1] (setting [5]) is on record as 49.70 ng/mL.
